In US7420056B2, “Substituted bicyclic imidazo-3-ylamine compounds” (Gruenenthal GmbH, priority 2004, dated 2008):

Target: mGluR5 receptor (Sus scrofa, UniProt I3LUI7)
Assay: Affinity for the mGluR5 receptor: inhibition of 3[H]-MPEP binding in pig brain homogenate
Settings: 10 μM compound, 5 nM 3[H]-MPEP, read-out: mGluR5 receptor inhibition of ^3[H]-MPEP binding [10 μM] in % at a concentration of the example compounds of 10 μM
Summary of the method: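 Pig brain membranes (450 μg protein; hemispheres without medulla, cerebellum and pons) in 30 mM Hepes pH 8.0 were incubated 60 min at room temperature with 5 nM [3H]-MPEP and compound at 10 μM. Bound radioactivity was filtered and counted. Nonspecific binding was defined with 10 μM MPEP.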

Chain of mGluR5 receptor (I3LUI7 19-1212): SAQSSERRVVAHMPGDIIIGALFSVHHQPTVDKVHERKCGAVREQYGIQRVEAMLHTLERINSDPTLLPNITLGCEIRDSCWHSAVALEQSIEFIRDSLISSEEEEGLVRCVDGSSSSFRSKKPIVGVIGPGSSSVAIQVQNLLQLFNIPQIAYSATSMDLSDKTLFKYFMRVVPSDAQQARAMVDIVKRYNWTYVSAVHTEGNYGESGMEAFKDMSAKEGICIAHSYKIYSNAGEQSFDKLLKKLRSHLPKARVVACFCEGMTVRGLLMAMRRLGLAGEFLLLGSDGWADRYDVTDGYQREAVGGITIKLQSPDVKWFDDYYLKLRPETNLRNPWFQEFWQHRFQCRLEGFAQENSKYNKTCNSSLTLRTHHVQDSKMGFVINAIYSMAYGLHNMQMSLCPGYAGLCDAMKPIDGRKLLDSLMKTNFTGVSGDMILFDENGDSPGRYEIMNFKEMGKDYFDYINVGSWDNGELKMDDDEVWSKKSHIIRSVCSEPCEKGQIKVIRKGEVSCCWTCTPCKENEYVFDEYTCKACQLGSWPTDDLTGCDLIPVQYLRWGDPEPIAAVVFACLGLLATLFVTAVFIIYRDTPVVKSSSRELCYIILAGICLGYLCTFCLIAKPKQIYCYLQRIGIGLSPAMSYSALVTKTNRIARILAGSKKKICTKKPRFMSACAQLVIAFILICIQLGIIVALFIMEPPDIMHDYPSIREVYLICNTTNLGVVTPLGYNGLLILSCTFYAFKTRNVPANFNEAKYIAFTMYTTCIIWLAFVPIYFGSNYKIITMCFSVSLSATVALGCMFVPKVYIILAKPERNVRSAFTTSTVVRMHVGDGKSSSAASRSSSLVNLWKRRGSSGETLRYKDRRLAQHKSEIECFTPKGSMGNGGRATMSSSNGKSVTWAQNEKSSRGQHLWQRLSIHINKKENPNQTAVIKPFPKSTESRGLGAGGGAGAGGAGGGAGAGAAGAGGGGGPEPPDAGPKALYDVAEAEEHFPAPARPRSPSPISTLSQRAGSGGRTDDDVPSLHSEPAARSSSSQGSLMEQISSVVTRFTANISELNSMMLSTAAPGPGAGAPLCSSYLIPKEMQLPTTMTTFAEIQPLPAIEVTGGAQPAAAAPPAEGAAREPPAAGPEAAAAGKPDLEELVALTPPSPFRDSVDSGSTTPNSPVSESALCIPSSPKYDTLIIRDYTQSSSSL

Row | inhibition at 10 µM [%] | Compound
1 | 33 | C(#Cc1csc(-c2nc3c(OCc4ccccc4)cccn3c2NC2CCCC2)c1)c1ccccc1 [Example 219, 8-(benzyloxy)-N-cyclopentyl-2-(4-(phenylethynyl)thiophen-2-yl)imidazo[1,2-a]pyridin-3-amine]
2 | 31 | CCCC(C)(C)Nc1c(-c2cc(C#Cc3ccccc3)cs2)nc2c(OCc3ccccc3)cccn12 [Example 220, 8-(benzyloxy)-N-(2-methylpentan-2-yl)-2-(4-(phenylethynyl)thiophen-2-yl)imidazo[1,2-a]pyridin-3-amine]
3 | 40 | Fc1ccc(CNc2c(-c3ccc(C#Cc4ccccc4)o3)nc3ccc(Cl)cn23)cc1 [Example 221, 6-chloro-N-(4-fluorobenzyl)-2-(5-(phenylethynyl)furan-2-yl)imidazo[1,2-a]pyridin-3-amine]
4 | 33 | CCCCNc1c(-c2cc(C#Cc3ccccc3)cs2)nc2ccc(Br)c(C)n12 [Example 222, 6-bromo-N-butyl-5-methyl-2-(4-(phenylethynyl)thiophen-2-yl)imidazo[1,2-a]pyridin-3-amine]
5 | 80 | Cc1cccn2c(Nc3ccco3)c(-c3ccc(C#Cc4ccccc4)o3)nc12 [Example 223, N-(furan-2-yl)-8-methyl-2-(5-(phenylethynyl)furan-2-yl)imidazo[1,2-a]pyridin-3-amine]
6 | 69 | C(#Cc1ccc(-c2nc3ccccn3c2Nc2ccco2)o1)c1ccccc1 [Example 224, N-(furan-2-yl)-2-(5-(phenylethynyl)furan-2-yl)imidazo[1,2-a]pyridin-3-amine]
7 | 43 | CCCc1ccn2c(Nc3ccco3)c(-c3ccc(C#Cc4ccccc4)o3)nc2c1 [Example 225, N-(furan-2-yl)-2-(5-(phenylethynyl)furan-2-yl)-7-propylimidazo[1,2-a]pyridin-3-amine]
8 | 41 | Cc1cc(C)n2c(Nc3cccc(C(F)(F)F)c3)c(-c3cc(C#Cc4ccccc4)cs3)nc2n1 [Example 226, 5,7-dimethyl-2-(4-(phenylethynyl)thiophen-2-yl)-N-(3-(trifluoromethyl)phenyl)imidazo[1,2-a]pyrimidin-3-amine]
9 | 61 | Cc1cc(Br)cn2c(NCCc3ccc(Cl)cc3)c(-c3cc(C#Cc4ccccc4)cs3)nc12 [Example 227, 6-bromo-N-(4-chlorophenethyl)-8-methyl-2-(4-(phenylethynyl)thiophen-2-yl)imidazo[1,2-a]pyridin-3-amine]
10 | 43 | Clc1ccc(CCNc2c(-c3cc(C#Cc4ccccc4)cs3)nc3cc(-c4ccccc4)ccn23)cc1 [Example 228, N-(4-chlorophenethyl)-7-phenyl-2-(4-(phenylethynyl)thiophen-2-yl)imidazo[1,2-a]pyridin-3-amine]
11 | 30 | C(#Cc1csc(-c2nc3cc(-c4ccccc4)ccn3c2NCCc2ccccc2)c1)c1ccccc1 [Example 229, N-phenethyl-7-phenyl-2-(4-(phenylethynyl)thiophen-2-yl)imidazo[1,2-a]pyridin-3-amine]
12 | 60 | Cc1cc(C)n2c(NCc3ccc(Cl)cc3)c(-c3cc(C#Cc4ccccc4)cs3)nc2c1 [Example 230, N-(4-chlorobenzyl)-5,7-dimethyl-2-(4-(phenylethynyl)thiophen-2-yl)imidazo[1,2-a]pyridin-3-amine]
13 | 62 | Cc1c(Br)ccc2nc(-c3cc(C#Cc4ccccc4)cs3)c(NCc3ccc(Cl)cc3)n12 [Example 231, 6-bromo-N-(4-chlorobenzyl)-5-methyl-2-(4-(phenylethynyl)thiophen-2-yl)imidazo[1,2-a]pyridin-3-amine]
14 | 75 | Cc1cc(Br)c2nc(-c3cc(C#Cc4ccccc4)cs3)c(NCc3ccc(Cl)cc3)n2c1 [Example 232, 8-bromo-N-(4-chlorobenzyl)-6-methyl-2-(4-(phenylethynyl)thiophen-2-yl)imidazo[1,2-a]pyridin-3-amine]
